Data as given in publication PMC7539200, “Glufosinate constrains synchronous and metachronous metastasis by promoting anti‐tumor macrophages” (EMBO Molecular Medicine, 2020).
Where two headings read alike, the source gives them in different places.

What was measured:
[1] = target: T1, human glutamine synthetase (hGS) (Homo sapiens, UniProt P15104); experiment: microtiter phosphate-release GS activity assay, Lineweaver-Burk and secondary plot; IC50 […]; assay type: biochemical
T1 construct: gene GLUL
T1 sequence (P15104 2-373): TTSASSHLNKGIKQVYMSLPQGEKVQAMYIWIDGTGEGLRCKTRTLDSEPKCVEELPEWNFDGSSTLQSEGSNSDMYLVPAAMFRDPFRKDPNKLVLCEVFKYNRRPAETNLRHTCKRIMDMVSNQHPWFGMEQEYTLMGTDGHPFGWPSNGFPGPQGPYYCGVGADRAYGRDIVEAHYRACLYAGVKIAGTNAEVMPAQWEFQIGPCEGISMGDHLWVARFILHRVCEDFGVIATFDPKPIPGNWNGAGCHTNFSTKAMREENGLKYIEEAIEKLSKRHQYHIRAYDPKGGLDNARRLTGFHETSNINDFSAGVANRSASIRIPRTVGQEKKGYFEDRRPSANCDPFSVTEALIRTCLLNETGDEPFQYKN

[2] = target: T1, human glutamine synthetase (hGS); experiment: as above; assay type: biochemical; remark: listed apart in the source

Compound	Ki [1] [µM]	Ki [2] [µM]
CP(=O)(O)CCC(N)C(=O)O (centres unmarked) [Glufosinate]	~19.5	
CS(=N)(=O)CCC(N)C(=O)O (centres unmarked) [Methionine sulfoximine]		880
